Reference: the NIST ThermoML archive (doi:10.1021/je034036t)

Details: Liquid, Pulse-echo method

COCCOCCOCCOCCOC [2,5,8,11,14-pentaoxapentadecane]
speed of sound [m/s]
Details	293.15 K	303.15 K	313.15 K	323.15 K	333.15 K	343.15 K	353.15 K
100 kPa	1400.2	1361.6	1324.5	1288	1252	1216.6	1181.6
10000 kPa	1439.3	1402.8	1367	1332.1	1297.9	1264.2	1231.2
20000 kPa	1477.3	1441.7	1407.3	1373.8	1340.7	1308.6	1276.9
30000 kPa	1512.3	1478.2	1444.9	1412.5	1380.8	1349.9	1319.8
40000 kPa	1546.2	1513	1480.9	1449.5	1418.3	1388.8	1359.8
50000 kPa	1578.2	1546.1	1514.8	1484.2	1454.2	1425.3	1397.1
60000 kPa	1609.1	1577.7	1547.2	1517.4	1488.4	1460.1	1432.8
70000 kPa	1638.4	1607.6	1578.1	1548.8	1520.7	1493.1	1466.5
80000 kPa	1666.8	1637	1607.8	1579.3	1551.9	1524.7	1498.9
90000 kPa	1694.2	1664.9	1636.4	1608.6	1581.5	1555.3	1529.8
100000 kPa	1720.6	1692	1663.9	1636.7	1610.2	1584.4	1559.5

COCCOCCOCCOC [2,5,8,11-tetraoxadodecane]
speed of sound [m/s]
Details	293.15 K	303.15 K	313.15 K	323.15 K	333.15 K	343.15 K	353.15 K
100 kPa	1361.9	1323.2	1285.1	1247.7	1210.9	1174.6	1138.7
10000 kPa	1403.1	1366.5	1330	1294.6	1259.5	1225.1	1191.5
20000 kPa	1442.5	1407.2	1372.2	1338.5	1304.8	1272	1240
30000 kPa	1479.3	1445.2	1411.8	1379.1	1346.9	1315.6	1284.6
40000 kPa	1514.7	1481.6	1448.8	1417.3	1386.3	1356.2	1326.2
50000 kPa	1547.8	1515.7	1484.1	1453.6	1423.4	1394.1	1365.6
60000 kPa	1579.5	1548.2	1517.5	1487.9	1458.8	1430.3	1402.4
70000 kPa	1610	1579.4	1549.7	1520.7	1492.1	1464.6	1437.6
80000 kPa	1639.3	1609.3	1580.3	1552	1524.3	1497.2	1470.9
90000 kPa	1667.4	1638.2	1609.9	1581.9	1554.8	1528.4	1502.6
100000 kPa	1694.6	1665.9	1638.1	1610.8	1584.3	1558.5	1533.4
